12 compounds from ChEMBL document CHEMBL1201862, “PubChem BioAssay data set” (2004) can be followed below.

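Grown in 96-well plates, cells were treated for 48 hours with each compound at five concentrations. Insufficient inhibition: endpoint recorded as highest concentration tested. Abbreviation: GI50, concentration required for 50% inhibition of growth.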 Activity calls are given as the source filed them. Cut-off read from the data, not from the text of the source: active = GI50 up to about 1.1 µM and inactive = higher. Bounds are passed on as bounds.

Among the test systems are SK-MEL-28; SN12C; KM12; ACHN; UACC-62; CAKI-1; OVCAR-3; HCT-116; UACC-257; KM-20L2; NCI-H460; NCI-H23; RXF 393; HCC 2998; A498; SR; T47D; BT-549; MCF7; NCI/ADR-RES.
Common to all, as to assay: NCI tumour cell line growth inhibition, 48 h

For the compound `CC(=O)Nc1ccc(/C=N\N2C(=O)c3ccccc3C2=O)cc1`, the GI50 in the test with SK-MEL-28, in the test on SN12C, in the test on KM12, in the test on ACHN, in the test with UACC-62 and with CAKI-1 was > 100 µM (inactive) throughout. Moreover, the GI50 in the test on OVCAR-3, in the test on HCT-116, in the test with UACC-257, with KM-20L2, with NCI-H460 and in the test on NCI-H23 was > 100 µM (inactive) in each case. The GI50 in the test with RXF 393, in the test on HCC 2998, in the test on A498 and in the test on SR was > 100 µM (inactive) each time.
For the compound `O=C(O)C1CCc2nnc(-c3ccccc3)n21` (stereo not given), the GI50 in the test on SK-MEL-28, in the test on SN12C, with KM12, with ACHN, in the test on UACC-62 and in the test on CAKI-1 was > 100 µM (inactive) throughout. Besides, the GI50 in the test with OVCAR-3, in the test on HCT-116, in the test on UACC-257, with KM-20L2, in the test on NCI-H460 and in the test with RXF 393 was > 100 µM (inactive) in each case. In addition, the GI50 in the test with HCC 2998, in the test on A498 and in the test with SR was > 100 µM (inactive) each time.
Turning to `C[C@]12CCc3nonc3C1CC[C@@H]1C2CC[C@]2(C)C(=O)/C(=N\O)CC12` (stereo not given in full), the GI50 with SK-MEL-28, with SN12C, in the test with KM12, in the test on ACHN, in the test on UACC-62 and with CAKI-1 was > 100 µM (inactive) in each case. In addition, the GI50 with OVCAR-3, in the test with HCT-116, with UACC-257, in the test with KM-20L2, with NCI-H460 and in the test with NCI-H23 was > 100 µM (inactive) each time. Moreover, the GI50 with RXF 393 was 3.87 µM (inactive); in the test with HCC 2998, > 100 µM (inactive); in the test with A498 it was > 100 µM (inactive); with SR it was > 100 µM (inactive).
Consider `O=C1c2ccccc2C(=O)N1CCN(CCN1C(=O)c2ccccc2C1=O)Cc1ccccc1`, for which the GI50 was > 100 µM (inactive) in the test on SK-MEL-28; > 100 µM (inactive) with SN12C; > 100 µM (inactive) in the test on KM12; > 100 µM (inactive) in the test on ACHN; 36.7 µM (inactive) with UACC-62; > 100 µM (inactive) with CAKI-1. Moreover, the GI50 with OVCAR-3, in the test on HCT-116, with UACC-257, in the test with KM-20L2, with NCI-H460 and with NCI-H23 was > 100 µM (inactive) each time. Besides, the GI50 with RXF 393, in the test on A498 and in the test with SR was > 100 µM (inactive) throughout.
As for `COc1ccccc1-n1c(NN)nc2ccc(Br)cc2c1=O`, the GI50 in the test with SK-MEL-28 is 40.3 µM (inactive); in the test on SN12C, 57.9 µM (inactive); in the test on KM12, 38.6 µM (inactive); in the test with ACHN, 36.5 µM (inactive); in the test on UACC-62 it was 36.6 µM (inactive); in the test with CAKI-1, 48.1 µM (inactive). In addition, the GI50 was 51.2 µM (inactive) in the test on OVCAR-3; 24.4 µM (inactive) in the test with UACC-257; 39.9 µM (inactive) with KM-20L2; 42.8 µM (inactive) with NCI-H460; 28.1 µM (inactive) in the test on NCI-H23; 30.4 µM (inactive) in the test on RXF 393. Besides, the values for the GI50 with HCC 2998 and in the test on SR were 41.7 µM (inactive) and 24.9 µM (inactive), respectively.
As to `Cc1cc2c(c3oc(C(O)(CO)C4CO4)cc(=O)c13)C(=O)c1c(O)cccc1C2=O` (stereo not given), the GI50 in the test on SK-MEL-28 was 0.00219 µM (active); in the test on SN12C, 0.000674 µM (active); in the test on KM12, 0.00104 µM (active); with ACHN, 0.000278 µM (active); in the test on UACC-62, 0.00119 µM (active); with CAKI-1, 0.000463 µM (active). Besides, the GI50 in the test with T47D was 0.00163 µM (active); in the test with OVCAR-3, 0.0029 µM (active); with HCT-116 it was 0.000363 µM (active); in the test with UACC-257, 0.00279 µM (active); in the test on KM-20L2 it was < 0.01 µM (active); with BT-549, 0.00296 µM (active). In addition, the GI50 in the test on MCF7 is 0.000435 µM (active); with NCI-H460, 0.000372 µM (active); in the test on RXF 393, 0.00125 µM (active); with HCC 2998 it was 0.00131 µM (active); in the test with A498, 0.00212 µM (active); in the test with SR, 0.000213 µM (active). Further, the GI50 in the test with NCI/ADR-RES was 0.00129 µM (active).
Take `O=S(=O)(Sc1ccc(Cl)cc1)c1ccc(Cl)cc1`: the GI50 with SK-MEL-28 was 16.5 µM (inactive); with SN12C, 12.4 µM (inactive); in the test with KM12, 14.7 µM (inactive); with ACHN, 16.1 µM (inactive); in the test with UACC-62 it was 16.6 µM (inactive); with CAKI-1, 19.1 µM (inactive). Further, the GI50 was 15.5 µM (inactive) in the test with OVCAR-3; 14.9 µM (inactive) in the test with HCT-116; 16.6 µM (inactive) in the test with UACC-257; 17.8 µM (inactive) in the test with KM-20L2; 17.1 µM (inactive) in the test with NCI-H460; 16 µM (inactive) in the test with NCI-H23. Further, the GI50 is 15.7 µM (inactive) in the test on RXF 393, 17.6 µM (inactive) in the test with HCC 2998, 15.9 µM (inactive) in the test on A498 and 10.5 µM (inactive) with SR.
With `Cc1c(NC(=S)NC(=O)c2ccc([N+](=O)[O-])cc2)c(=O)n(-c2ccccc2)n1C`, the GI50 with SK-MEL-28, in the test with SN12C, in the test on KM12, in the test with ACHN, with UACC-62 and in the test with CAKI-1 was > 100 µM (inactive) in each case. Also, the GI50 in the test with OVCAR-3, with HCT-116, with UACC-257, in the test with KM-20L2, in the test with NCI-H460 and in the test with NCI-H23 was > 100 µM (inactive) each time. In addition, the GI50 with RXF 393, with HCC 2998, with A498 and with SR was > 100 µM (inactive) throughout.
As for `O=C1Nc2ccc([N+](=O)[O-])cc2/C1=N/Nc1ccc([N+](=O)[O-])cc1`, the GI50 is 19.5 µM (inactive) in the test with SK-MEL-28; 12.4 µM (inactive) with KM12; 22.3 µM (inactive) in the test on ACHN; 14.6 µM (inactive) with UACC-62; 20.5 µM (inactive) with CAKI-1; 20.1 µM (inactive) with OVCAR-3. The GI50 in the test with UACC-257 was 21.1 µM (inactive); with KM-20L2 it was 17.8 µM (inactive); in the test on NCI-H460 it was 12.8 µM (inactive); with NCI-H23, 20.3 µM (inactive); in the test with RXF 393, 13.7 µM (inactive); in the test on A498, 59.3 µM (inactive). For the same compound, the GI50 with SR is 43.4 µM (inactive).
For `Cc1ccccc1NC(=O)C(=O)CC(=O)c1c(C)[n+]([O-])c2ccccc2[n+]1[O-]`, the GI50 was > 100 µM (inactive) in the test on SK-MEL-28; > 100 µM (inactive) in the test with SN12C; 59.8 µM (inactive) in the test on KM12; > 100 µM (inactive) in the test with ACHN; > 100 µM (inactive) in the test with UACC-62; > 100 µM (inactive) with CAKI-1. The GI50 was > 100 µM (inactive) in the test with OVCAR-3; > 100 µM (inactive) with HCT-116; 16 µM (inactive) with UACC-257; > 100 µM (inactive) with KM-20L2; > 100 µM (inactive) in the test on NCI-H460; > 100 µM (inactive) in the test on NCI-H23. The GI50 is > 100 µM (inactive) in the test on RXF 393, > 100 µM (inactive) in the test with HCC 2998, > 100 µM (inactive) in the test with A498 and 0.0278 µM (active) in the test on SR.
Regarding `COC(=O)c1[nH]c(=S)[nH]c(=O)c1-c1ccc(Cl)cc1`, the GI50 in the test with SK-MEL-28 is > 50 µM (inactive); with SN12C it was > 50 µM (inactive); in the test on KM12, > 50 µM (inactive); in the test with ACHN, > 50 µM (inactive); in the test with UACC-62 it was > 50 µM (inactive); in the test on CAKI-1, > 12.2 µM (inactive). Further, the GI50 in the test on OVCAR-3, in the test on HCT-116, in the test with UACC-257, with KM-20L2, with NCI-H460 and with NCI-H23 was > 50 µM (inactive) each time. For the same compound, the GI50 with RXF 393, in the test on HCC 2998, in the test with A498 and in the test with SR was > 50 µM (inactive) each time.
As to `CCN1CC2(C)CC[C@@H](OC)C34[C@@H]2[C@H](OC(C)=O)C2(OCO[C@@]25C[C@H](OC)C2C[C@]3(O)[C@@H]5[C@H]2O)[C@H]14`, the GI50 in the test on SK-MEL-28, in the test with SN12C, in the test with KM12, in the test on CAKI-1, in the test on OVCAR-3 and with HCT-116 was > 100 µM (inactive) each time. The GI50 with UACC-257 is > 100 µM (inactive); in the test on KM-20L2, > 100 µM (inactive); in the test on NCI-H460, > 100 µM (inactive); in the test on NCI-H23 it was > 100 µM (inactive); in the test with RXF 393, 15.8 µM (inactive); in the test with HCC 2998, > 100 µM (inactive). The GI50 in the test with SR is > 100 µM (inactive).
